In the NIST ThermoML archive (doi:10.1016/j.jct.2012.03.003):

Assay: xn = mol fraction of the nth substance listed
Details: Liquid, Vibrating tube method

COc1cc2c(cc1O)CC1c3c(cc(O)c(OC)c3-2)CCN1C (stereo not given) [boldine] + CCO
Details | mass density [kg/m3]
323.04 K, 16000 kPa, x1 = 0.0074 | 793.69
323.04 K, 16000 kPa, x1 = 0.0196 | 821.98
323.04 K, 17000 kPa, x1 = 0.0074 | 794.55
323.04 K, 17000 kPa, x1 = 0.0196 | 822.81
323.04 K, 18000 kPa, x1 = 0.0074 | 795.4
323.04 K, 18000 kPa, x1 = 0.0196 | 823.62
323.04 K, 19000 kPa, x1 = 0.0074 | 796.23
323.04 K, 19000 kPa, x1 = 0.0196 | 824.42
323.04 K, 20000 kPa, x1 = 0.0074 | 797.04
323.04 K, 20000 kPa, x1 = 0.0196 | 825.2
323.05 K, 1000 kPa, x1 = 0.0267 | 820.88
323.05 K, 2000 kPa, x1 = 0.0267 | 821.74
323.05 K, 3000 kPa, x1 = 0.0267 | 822.62
323.05 K, 4000 kPa, x1 = 0.0267 | 823.5
323.05 K, 5000 kPa, x1 = 0.0267 | 824.37
323.05 K, 6000 kPa, x1 = 0.0267 | 825.26
323.05 K, 7000 kPa, x1 = 0.0267 | 826.15
323.05 K, 8000 kPa, x1 = 0.0267 | 827.02
323.05 K, 9000 kPa, x1 = 0.0267 | 827.89
323.05 K, 10000 kPa, x1 = 0.0267 | 828.78
323.05 K, 11000 kPa, x1 = 0.0267 | 829.64
323.05 K, 12000 kPa, x1 = 0.0267 | 830.5
323.05 K, 13000 kPa, x1 = 0.0267 | 831.36
323.05 K, 14000 kPa, x1 = 0.0267 | 832.21
323.05 K, 15000 kPa, x1 = 0.0267 | 833.04
323.05 K, 16000 kPa, x1 = 0.0267 | 833.87
323.05 K, 17000 kPa, x1 = 0.0267 | 834.68
323.05 K, 18000 kPa, x1 = 0.0267 | 835.48
323.05 K, 19000 kPa, x1 = 0.0267 | 836.27
323.05 K, 20000 kPa, x1 = 0.0267 | 837.04
323.11 K, 1000 kPa, x1 = 0.0136 | 793.39
323.11 K, 2000 kPa, x1 = 0.0136 | 794.29
323.11 K, 3000 kPa, x1 = 0.0136 | 795.2
323.11 K, 4000 kPa, x1 = 0.0136 | 796.12
323.11 K, 5000 kPa, x1 = 0.0136 | 797.04
323.11 K, 6000 kPa, x1 = 0.0136 | 797.96
323.11 K, 7000 kPa, x1 = 0.0136 | 798.88
323.11 K, 8000 kPa, x1 = 0.0136 | 799.8
323.11 K, 9000 kPa, x1 = 0.0136 | 800.72
323.11 K, 10000 kPa, x1 = 0.0136 | 801.63
323.11 K, 11000 kPa, x1 = 0.0136 | 802.53
323.11 K, 12000 kPa, x1 = 0.0136 | 803.44
323.11 K, 13000 kPa, x1 = 0.0136 | 804.33
323.11 K, 14000 kPa, x1 = 0.0136 | 805.21
323.11 K, 15000 kPa, x1 = 0.0136 | 806.08
323.11 K, 16000 kPa, x1 = 0.0136 | 806.95
323.11 K, 17000 kPa, x1 = 0.0136 | 807.79
323.11 K, 18000 kPa, x1 = 0.0136 | 808.63
323.11 K, 19000 kPa, x1 = 0.0136 | 809.44
323.11 K, 20000 kPa, x1 = 0.0136 | 810.25
332.92 K, 1000 kPa, x1 = 0.0012 | 757.69
332.92 K, 2000 kPa, x1 = 0.0012 | 758.72
332.92 K, 3000 kPa, x1 = 0.0012 | 759.75
332.92 K, 4000 kPa, x1 = 0.0012 | 760.77
332.92 K, 5000 kPa, x1 = 0.0012 | 761.81
332.92 K, 6000 kPa, x1 = 0.0012 | 762.85
332.92 K, 7000 kPa, x1 = 0.0012 | 763.86
332.92 K, 8000 kPa, x1 = 0.0012 | 764.88
332.92 K, 9000 kPa, x1 = 0.0012 | 765.9
332.92 K, 10000 kPa, x1 = 0.0012 | 766.9
332.92 K, 11000 kPa, x1 = 0.0012 | 767.9
332.92 K, 12000 kPa, x1 = 0.0012 | 768.88
332.92 K, 13000 kPa, x1 = 0.0012 | 769.87
332.92 K, 14000 kPa, x1 = 0.0012 | 770.83
332.92 K, 15000 kPa, x1 = 0.0012 | 771.78
332.92 K, 16000 kPa, x1 = 0.0012 | 772.72
332.92 K, 17000 kPa, x1 = 0.0012 | 773.63
332.92 K, 18000 kPa, x1 = 0.0012 | 774.53
332.92 K, 19000 kPa, x1 = 0.0012 | 775.42
332.92 K, 20000 kPa, x1 = 0.0012 | 776.29
332.93 K, 1000 kPa, x1 = 0.0074 | 770.77
332.93 K, 2000 kPa, x1 = 0.0074 | 771.77
332.93 K, 3000 kPa, x1 = 0.0074 | 772.79
332.93 K, 4000 kPa, x1 = 0.0074 | 773.79
332.93 K, 5000 kPa, x1 = 0.0074 | 774.8
332.93 K, 6000 kPa, x1 = 0.0074 | 775.81
332.93 K, 7000 kPa, x1 = 0.0074 | 776.8
332.93 K, 8000 kPa, x1 = 0.0074 | 777.8
332.93 K, 9000 kPa, x1 = 0.0074 | 778.8
332.93 K, 10000 kPa, x1 = 0.0074 | 779.77
332.93 K, 11000 kPa, x1 = 0.0074 | 780.75
332.93 K, 12000 kPa, x1 = 0.0074 | 781.71
332.93 K, 13000 kPa, x1 = 0.0074 | 782.66
332.93 K, 14000 kPa, x1 = 0.0074 | 783.61
332.93 K, 15000 kPa, x1 = 0.0074 | 784.53
332.93 K, 16000 kPa, x1 = 0.0074 | 785.45
332.93 K, 17000 kPa, x1 = 0.0074 | 786.34
332.93 K, 18000 kPa, x1 = 0.0074 | 787.23
332.93 K, 19000 kPa, x1 = 0.0074 | 788.09
332.93 K, 20000 kPa, x1 = 0.0074 | 788.95
332.95 K, 1000 kPa, x1 = 0.0196 | 799.67
332.95 K, 2000 kPa, x1 = 0.0196 | 800.63
332.95 K, 3000 kPa, x1 = 0.0196 | 801.6
332.95 K, 4000 kPa, x1 = 0.0196 | 802.56
332.95 K, 5000 kPa, x1 = 0.0196 | 803.52
332.95 K, 6000 kPa, x1 = 0.0196 | 804.48
332.95 K, 7000 kPa, x1 = 0.0196 | 805.45
332.95 K, 8000 kPa, x1 = 0.0196 | 806.4
332.95 K, 9000 kPa, x1 = 0.0196 | 807.35
332.95 K, 10000 kPa, x1 = 0.0196 | 808.29
332.95 K, 11000 kPa, x1 = 0.0196 | 809.23
332.95 K, 12000 kPa, x1 = 0.0196 | 810.15
332.95 K, 13000 kPa, x1 = 0.0196 | 811.07
332.95 K, 14000 kPa, x1 = 0.0196 | 811.98
332.95 K, 15000 kPa, x1 = 0.0196 | 812.86
332.95 K, 16000 kPa, x1 = 0.0196 | 813.75
332.95 K, 17000 kPa, x1 = 0.0196 | 814.61
332.95 K, 18000 kPa, x1 = 0.0196 | 815.46
332.95 K, 19000 kPa, x1 = 0.0196 | 816.3
332.95 K, 20000 kPa, x1 = 0.0196 | 817.11
333 K, 1000 kPa, x1 = 0.0267 | 811.86
333 K, 2000 kPa, x1 = 0.0267 | 812.8
333 K, 3000 kPa, x1 = 0.0267 | 813.76
333 K, 4000 kPa, x1 = 0.0267 | 814.69
333 K, 5000 kPa, x1 = 0.0267 | 815.65
333 K, 6000 kPa, x1 = 0.0267 | 816.59
333 K, 7000 kPa, x1 = 0.0267 | 817.53
333 K, 8000 kPa, x1 = 0.0267 | 818.45
333 K, 9000 kPa, x1 = 0.0267 | 819.38
333 K, 10000 kPa, x1 = 0.0267 | 820.29
333 K, 11000 kPa, x1 = 0.0267 | 821.22
333 K, 12000 kPa, x1 = 0.0267 | 822.11
333 K, 13000 kPa, x1 = 0.0267 | 823.01
333 K, 14000 kPa, x1 = 0.0267 | 823.9
333 K, 15000 kPa, x1 = 0.0267 | 824.77
333 K, 16000 kPa, x1 = 0.0267 | 825.63
333 K, 17000 kPa, x1 = 0.0267 | 826.48
333 K, 18000 kPa, x1 = 0.0267 | 827.32
333 K, 19000 kPa, x1 = 0.0267 | 828.13
333 K, 20000 kPa, x1 = 0.0267 | 828.94
333.04 K, 1000 kPa, x1 = 0.0136 | 784.43
333.04 K, 2000 kPa, x1 = 0.0136 | 785.41
333.04 K, 3000 kPa, x1 = 0.0136 | 786.41
333.04 K, 4000 kPa, x1 = 0.0136 | 787.39
333.04 K, 5000 kPa, x1 = 0.0136 | 788.38
333.04 K, 6000 kPa, x1 = 0.0136 | 789.37
333.04 K, 7000 kPa, x1 = 0.0136 | 790.36
333.04 K, 8000 kPa, x1 = 0.0136 | 791.33
333.04 K, 9000 kPa, x1 = 0.0136 | 792.31
333.04 K, 10000 kPa, x1 = 0.0136 | 793.27
333.04 K, 11000 kPa, x1 = 0.0136 | 794.24
333.04 K, 12000 kPa, x1 = 0.0136 | 795.2
333.04 K, 13000 kPa, x1 = 0.0136 | 796.14
333.04 K, 14000 kPa, x1 = 0.0136 | 797.07
333.04 K, 15000 kPa, x1 = 0.0136 | 797.98
333.04 K, 16000 kPa, x1 = 0.0136 | 798.89
333.04 K, 17000 kPa, x1 = 0.0136 | 799.78
333.04 K, 18000 kPa, x1 = 0.0136 | 800.65
333.04 K, 19000 kPa, x1 = 0.0136 | 801.51
333.04 K, 20000 kPa, x1 = 0.0136 | 802.34
